Test results reported in PubChem BioAssay AID330 (DTP/NCI, 2004).
Several values for one entry are separate records, joined by “and”; a condition that tells them apart may be missing. Identical values can stand only once. Inconclusive results and toxic doses are left out.

Test system: P388 leukemia ip, CD2F1 mice, survival T/C
Experiment: NCI In Vivo Anticancer Drug Screen. Data for tumor model P388 Leukemia (intraperitoneal) in CD2F1 (CDF1) mice
Conditions: endpoint: median survival time, higher = longer survival
Outline: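 Mice carrying the transplanted tumor received test compound or vehicle. Survival was recorded in each group, and the value is the treated-group measurement divided by that of the vehicle-treated control group.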

[1] = dose: 25.0 mg/kg/injection, schedule: Q01DX009 (ip), vehicle: distilled water + Tween-80
[2] = dose: 25.0 mg/kg/injection, schedule: Q01DX005 (ip), vehicle: Klucel (hydroxypropylcellulose) (HPC)

CNC(=O)OCc1c(COC(=O)NC)c(-c2c(F)cccc2F)n2c1CCC2
T/C (dose: 6.25 mg/kg/injection, schedule: Q01DX009 (ip), vehicle: water): 166 % of control | T/C (dose: 12.5 mg/kg/injection, schedule: Q01DX009 (ip), vehicle: distilled water + Tween-80): 155 % of control | T/C [1]: 108 % of control | T/C (dose: 25.0 mg/kg/injection, schedule: Q01DX009 (ip), vehicle: water): 88 % of control

C1CCC2(CC1)OCCCO2
T/C (dose: 100.0 mg/kg/injection, schedule: Q01DX001 (ip), vehicle: Klucel (hydroxypropylcellulose) (HPC)): 94 % of control | T/C (dose: 200.0 mg/kg/injection, schedule: Q01DX001 (ip), vehicle: Klucel (hydroxypropylcellulose) (HPC)): 99 % of control | T/C (dose: 400.0 mg/kg/injection, schedule: Q01DX001 (ip), vehicle: Klucel (hydroxypropylcellulose) (HPC)): 107 % of control

Clc1ccc(OCCC(Cn2ccnc2)c2ccc(Cl)cc2Cl)c(Cl)c1 (centres undefined)
T/C (dose: 12.5 mg/kg/injection, schedule: Q01DX009 (ip), vehicle: saline with Tween-80): 113 % of control | T/C (dose: 25.0 mg/kg/injection, schedule: Q01DX009 (ip), vehicle: saline with Tween-80): 112 % of control | T/C (dose: 50.0 mg/kg/injection, schedule: Q01DX009 (ip), vehicle: saline with Tween-80): 101 % of control

O=S1(=O)CS(=O)(=O)OCCCCCO1
T/C (dose: 6.25 mg/kg/injection, schedule: Q01DX005 (ip), vehicle: Klucel (hydroxypropylcellulose) (HPC)): 161 % of control | T/C (dose: 12.5 mg/kg/injection, schedule: Q01DX005 (ip), vehicle: Klucel (hydroxypropylcellulose) (HPC)): 211 % of control and 213 % of control | T/C [2]: 255 % of control and 288 % of control | T/C (dose: 50.0 mg/kg/injection, schedule: Q01DX005 (ip), vehicle: Klucel (hydroxypropylcellulose) (HPC)): 165 % of control and 288 % of control

COc1ccc([I+]c2ccc(OC)cc2)cc1
T/C (dose: 3.0 mg/kg/injection, schedule: Q01DX009 (ip), vehicle: saline with Tween-80): 104 % of control | T/C (dose: 6.0 mg/kg/injection, schedule: Q01DX009 (ip), vehicle: saline with Tween-80): 120 % of control

CCCCCCCC(O)CCCCCCC
T/C (dose: 100.0 mg/kg/injection, schedule: Q04DX003 (ip), vehicle: other): 100 % of control | T/C (dose: 200.0 mg/kg/injection, schedule: Q04DX003 (ip), vehicle: other): 100 % of control | T/C (dose: 400.0 mg/kg/injection, schedule: Q04DX003 (ip), vehicle: other): 109 % of control

NC(=S)c1cccc(/C=N/O)n1
T/C (dose: 50.0 mg/kg/injection, schedule: Q04DX003 (ip), vehicle: Klucel (hydroxypropylcellulose) (HPC)): 104 % of control | T/C (dose: 100.0 mg/kg/injection, schedule: Q04DX003 (ip), vehicle: Klucel (hydroxypropylcellulose) (HPC)): 99 % of control | T/C (dose: 200.0 mg/kg/injection, schedule: Q04DX003 (ip), vehicle: Klucel (hydroxypropylcellulose) (HPC)): 95 % of control

[Cl][Pt+2][Cl].[NH-]CCC[NH-]
T/C (dose: 6.25 mg/kg/injection, schedule: Q04DX002 (ip), vehicle: saline): 178 % of control | T/C (dose: 12.5 mg/kg/injection, schedule: Q04DX002 (ip), vehicle: saline): 183 % of control

C=C1C(=O)O[C@@H]2[C@@H]3O[C@@](C)(CC[C@H](OC(C)=O)[C@@H]3CO)C[C@@H](OC(=O)/C(=C\C)COC(C)=O)[C@@H]12
T/C [2]: 101 % of control

COC(=O)c1c(-c2ccc3c(c2)OCO3)c(C=O)n(C)c1C
T/C (dose: 100.0 mg/kg/injection, schedule: Q04DX002 (ip), vehicle: saline with Tween-80): 90 % of control | T/C (dose: 200.0 mg/kg/injection, schedule: Q04DX002 (ip), vehicle: saline with Tween-80): 87 % of control | T/C (dose: 400.0 mg/kg/injection, schedule: Q04DX002 (ip), vehicle: saline with Tween-80): 89 % of control

Cc1ccc(NC(=O)N2CC2)cc1NC(=O)N1CC1
T/C (dose: 0.78 mg/kg/injection, schedule: Q01DX009 (ip), vehicle: Klucel (hydroxypropylcellulose) (HPC)): 112 % of control | T/C (dose: 3.12 mg/kg/injection, schedule: Q01DX009 (ip), vehicle: Klucel (hydroxypropylcellulose) (HPC)): 154 % of control | T/C (dose: 6.25 mg/kg/injection, schedule: Q01DX009 (ip), vehicle: Klucel (hydroxypropylcellulose) (HPC)): 107 % of control and 90 % of control

O=CNc1cccc(NC=O)c1
T/C [1]: 111 % of control | T/C (dose: 50.0 mg/kg/injection, schedule: Q01DX009 (ip), vehicle: distilled water + Tween-80): 100 % of control | T/C (dose: 100.0 mg/kg/injection, schedule: Q01DX009 (ip), vehicle: distilled water + Tween-80): 100 % of control | T/C (dose: 200.0 mg/kg/injection, schedule: Q01DX009 (ip), vehicle: distilled water + Tween-80): 100 % of control

COC(=O)C(C(=O)OC)=S1C=CC=C1
T/C (dose: 100.0 mg/kg/injection, schedule: Q04DX003 (ip), vehicle: saline): 106 % of control | T/C (dose: 200.0 mg/kg/injection, schedule: Q04DX003 (ip), vehicle: saline): 100 % of control | T/C (dose: 400.0 mg/kg/injection, schedule: Q04DX003 (ip), vehicle: saline): 106 % of control

CCOC(=O)C1=NN(c2ccccc2)CC1C(=O)OC (centres undefined)
T/C (dose: 50.0 mg/kg/injection, schedule: Q04DX002 (ip), vehicle: suspension in saline): 103 % of control | T/C (dose: 100.0 mg/kg/injection, schedule: Q04DX002 (ip), vehicle: suspension in saline): 100 % of control | T/C (dose: 200.0 mg/kg/injection, schedule: Q04DX002 (ip), vehicle: suspension in saline): 98 % of control

CC(C)N(Cc1ccccc1)C(=O)Nc1ccc(Cc2ccc(NC(=O)N(Cc3ccccc3)C(C)C)cc2)cc1
T/C (dose: 50.0 mg/kg/injection, schedule: Q01DX009 (ip), vehicle: Klucel (hydroxypropylcellulose) (HPC)): 90 % of control | T/C (dose: 100.0 mg/kg/injection, schedule: Q01DX009 (ip), vehicle: Klucel (hydroxypropylcellulose) (HPC)): 96 % of control | T/C (dose: 200.0 mg/kg/injection, schedule: Q01DX009 (ip), vehicle: Klucel (hydroxypropylcellulose) (HPC)): 93 % of control
